Experimental findings from PMC3240648, “Inhibition of Influenza A Virus (H1N1) Fusion by Benzenesulfonamide Derivatives Targeting Viral Hemagglutinin” (PLoS ONE, 2011) are described below.

Data set [1] relates to Influenza A/Human/Hubei/3/2005 (H3N2). Put plainly: microbe, parasite or virus in culture. Conditions: for pEC50: Influenza A virus, H3N2, MDCK, 72 h, read-out: CPE (EC50) A/Human/Hubei/3/2005 (H3N2). The class given is cell-based, Influenza A virus.
Data set [2] relates to Influenza A/Mal/302/54 (H1N1). Briefly: microbe, parasite or virus in culture. The data set is classed as cell-based. The conditions noted are these: H1N1, MDCK, 72 h, read-out: CPE (EC50) A/Mal/302/54 (H1N1).
A short description of data set [3]: Repeated oral dosing of mice without virus challenge (survival, body weight). The class given is in vivo. Conditions: 200 mg/kg and 50 mg/kg orally twice a day for 7 days, monitored 14 days. An excerpt:
Survival of the treated animals and body weight were monitored for 14 days starting from the first day of compound dosing.

The test system of data set [4] is influenza virus. Put plainly: microbe, parasite or virus in culture. The class given is cell-based. The conditions noted are these: unidentified influenza virus, read-out: in vitro EC90.
Data set [5] has as its target Bromelain-cleaved HA (BHA) (Influenza A virus (H1N1), UniProt Q0HD60). The class given is biochemical.
The conditions of data set [6]: mouse, in vivo.
Data set [7] relates to Influenza A/New Jersey/8/76 (H1N1). Briefly: microbe, parasite or virus in culture. The data set is classed as cell-based. Conditions: H1N1, MDCK, 72 h, read-out: CPE (EC50) A/New Jersey/8/76 (H1N1).
For data set [8], the system named is Influenza A/PR/8/34 (H1N1). Briefly: microbe, parasite or virus in culture. The class given is cell-based. The conditions noted are these: MDCK, 72 h, read-out: CPE (EC50) A/PR/8/34 (H1N1).
Another data set is described as follows: in vivo. The conditions noted are these: male, CD-1, mouse.
Data set [9] has as its system Influenza A/Hongkong/8/68 (H3N2). Briefly: microbe, parasite or virus in culture. Conditions: for pEC50: Influenza A virus, H3N2, MDCK, 72 h, read-out: CPE (EC50) A/Hongkong/8/68 (H3N2). The class given is cell-based, Influenza A virus.
The subject of data set [10] is influenza virus. The data set is classed as cell-based. Conditions: for reduction of virus yield: 3.16 µM, 48 hours, MDCK, TCID50.
Data set [11] addresses hemagglutinin of influenza virus (Influenza A virus (H1N1), UniProt Q0HD60). The data set is classed as cell-based. Conditions: for effect on hemolysis (negative controls): data not shown.
For data set [12], the system named is viral hemagglutinin binding to sialic acid receptors of chicken erythrocytes. The data set is classed as cell-based, influenza virus. Conditions: 10 µM, regardless of viral dilution; data not shown.
The subject of data set [13] is Influenza A/Weiss/43 (H1N1). The data set is classed as cell-based, Influenza A virus.
In data set [14] the test system is Influenza A/Weiss/43 (H1N1). The data set is classed as cell-based, Influenza A virus. The source holds these as a separate data set.

What is called EC90 is the concentration at which the effect reaches the 90% level. What is called bioavailability is dose-corrected exposure relative to a reference, in per cent. A higher bioavailability goes with much systemic uptake. By AUC(0-inf) is commonly meant the area under the concentration-time curve extrapolated to infinity. Higher therefore signals high exposure. One may read the AUC(0-t) as exposure summed from dosing to a finite time, without extrapolation to infinity.

pEC50: −log10 of the molar value. “Also recorded” adds a separate entry of the source.

Bromelain-cleaved HA (BHA), sequence (Q0HD60 18-343, added parts left off): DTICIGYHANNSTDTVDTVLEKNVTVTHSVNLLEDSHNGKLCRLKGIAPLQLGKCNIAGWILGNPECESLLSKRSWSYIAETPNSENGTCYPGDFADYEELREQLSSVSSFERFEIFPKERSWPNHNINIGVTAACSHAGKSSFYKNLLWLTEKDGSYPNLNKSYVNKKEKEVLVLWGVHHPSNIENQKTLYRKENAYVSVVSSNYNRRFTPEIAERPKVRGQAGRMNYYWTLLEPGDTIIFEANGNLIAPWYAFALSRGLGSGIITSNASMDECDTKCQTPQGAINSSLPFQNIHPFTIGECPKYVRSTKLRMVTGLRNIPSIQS
hemagglutinin of influenza virus, sequence (Q0HD60 18-343, added parts left off): as above

For `CC1(C)C[C@H](O)C[C@](C)(CNc2ccc(Cl)c(S(N)(=O)=O)c2)C1` [RO5487624], the pEC50 is less than 4.00 in data set [1]; 6.35 in data set [2]; 7.05 in data set [7]; 6.68 in data set [8]; less than 4.00 in [9]. Moreover, the “animal death and body weight changes” value in data set [3] is “did not find any animal death and statistically significant body weight changes”. For the same compound, in the data set on influenza virus [4], the EC90 was 300 nM. Also, the BHA trypsin sensitivity result in data set [5] was “+”. In addition, the “protection of BHA from trypsin digestion after acidification” value (“protection of BHA from trypsin digestion” below) in [5] was “completely protected HA from trypsin digestion”. The “C max and AUC in plasma versus oral dose” value in data set [6] is recorded as “increased in a dose-dependent manner”. In addition, in the data set “in vivo”, the bioavailability was more than 70%. The same compound registered an AUC(0-inf) in “in vivo” (iv, 2 mg/kg) of 629 ng·h/mL. The compound further gave an AUC(0-t) in “in vivo” (iv, 2 mg/kg) of 587 ng·h/mL.

On to `NC(=O)c1ncn([C@@H]2O[C@H](CO)[C@@H](O)[C@H]2O)n1` [Ribavirin], for which, in the data set with influenza virus [10], the “dynamics of progeny virus production” value was “became weaker” and the “inhibition of progeny virus production” value is on record as “strongly inhibited progeny virus production”. The “effect on hemolysis (negative controls)” value in data set [11] was “did not show any effect on hemolysis”. Also, the “protection of BHA from trypsin digestion” value in data set [5] is “failed to show a protective effect on BHA”.

Consider `CCOC(=O)C1=C[C@@H](OC(CC)CC)[C@H](NC(C)=O)[C@@H](N)C1` [Oseltamivir], for which the “reduction of virus yield” value with influenza virus [10] turned out to be 5 log. Also, the “effect on hemolysis (negative controls)” value in [11] is reported as “did not show any effect on hemolysis”.

Turning to `CC1(C)CC(O)CC(C)(CNc2cccc(S(N)(=O)=O)c2)C1` (stereo not shown) [RO5464466, 3-[(5-Hydroxy-1,3,3-trimethyl-cyclohexylmethyl)-amino]-benzenesulfonamide], in the data set on influenza virus [10], the “dynamics of progeny virus production” value is “strong inhibition at all time points” and the “reduction of virus yield” value was determined as 8 log. Moreover, in data set [1], the “inhibitory effect on replication of A/Human/Hubei/3/2005 (H3N2) in CPE assay” value is given as “failed to exhibit an apparent inhibitory effect” and the pEC50 is less than 4.00. The pEC50 in data set [2] was 6.18. Besides, the HA-mediated hemolysis result in data set [11] (10 µM, pH 5.03, 5.05, 5.1 and 5.2) was “completely blocked”. Besides, the “inhibitory effect on hemagglutination” value in [12] is “did not have an inhibitory effect on hemagglutination”. Further, in data set [5], the BHA trypsin sensitivity entry is listed as “+”; the “protection of BHA from trypsin digestion” value is recorded as “completely protected HA from trypsin digestion”; the “protection of BHA from trypsin-caused degradation at different pH” value is listed as “effectively protected BHA from trypsin-caused degradation throughout the tested pH values, except pH 4.5”. Besides, in data set [13], the “effect on virus replication in one cycle” value is given as “completely blocks virus replication”. Further, the pEC50 in data set [8] is 6.24. Further, in data set [9], the “inhibitory effect on replication of A/Hongkong/8/68 (H3N2) in CPE assay” value is on record as “failed to exhibit an apparent inhibitory effect” and the pEC50 is less than 4.00. The plaque formation entry in data set [14] is listed as “completely protected cell monolayer against cell death (no visible plaques); also recorded: still inhibited virus infection”.
